What was measured:
Aβtotal [1] = assay: Demonstration of in vivo efficacy: Aβtotal lowering in brain after single oral dose (Table 13); conditions: mouse brain soluble fraction, mean, compared to untreated animals
Description: (§1) To determine whether acute administration of an Aβ42 lowering agent would reduce Aβ42 levels in vivo, non-transgenic rodents, e.g. mice or rats were used. Alternatively, two to three month old Tg2576 mice expressing APP695 containing the “Swedish” variant can be used or a transgenic mouse model developed by Dr. Fred Van Leuven (K. U. Leuven, Belgium) and co-workers, with neuron-specific expression of a clinical mutant of the human amyloid precursor protein [V717I] (Moechars et al., 1999 J. Biol. Chem. 274, 6483). Young transgenic mice have high levels of Aβ in the brain but no detectable Aβ deposition. At approximately 6-8 months of age, the transgenic mice start to display spontaneous, progressive accumulation of β-amyloid (Aβ) in the brain, eventually resulting in amyloid plaques within the subiculum, hippocampus and cortex. Animals treated with the Aβ42 lowering agent were examined and compared to those untreated or treated with vehicle and brain levels of soluble Aβ42 and total Aβ would be quantitated by standard techniques, for example, using ELISA. Treatment periods varied from hours to days and were adjusted based on the results of the Aβ42 lowering once a time course of onset of effect could be established.
(§2) A typical protocol for measuring Aβ42 lowering in vivo is shown but it is only one of many variations that could be used to optimize the levels of detectable Aβ. For example, Aβ42 lowering compounds were formulated in 20% of Captisol® (a sulfobutyl ether of β-cyclodextrin) in water or 20% hydroxypropyl β cyclodextrin. The Aβ42 lowering agents were administered as a single oral dose or by any acceptable route of administration to overnight fasted animals. After four hours, the animals were sacrificed and Aβ42 levels were analysed.
(§3) Blood was collected by decapitation and exsanguinations in EDTA-treated collection tubes. Blood was centrifuged at 1900 g for 10 minutes at 4° C. and the plasma recovered and flash frozen for later analysis. The brain was removed from the cranium and hindbrain. The cerebellum was removed and the left and right hemisphere were separated. The left hemisphere was stored at −18° C. for quantitative analysis of test compound levels. The right hemisphere was rinsed with phosphate-buffered saline (PBS) buffer and immediately frozen on dry ice and stored at −80° C. until homogenization for biochemical assays.
Mouse brains were resuspended in 10 volumes of 0.4% DEA (diethylamine)/50 mM NaCl pH 10 (for non-transgenic animals) or 0.1% 3-[3-cholamidopropyl)-dimethyl-ammonio]-1-propanesulfonate (CHAPS) in tris buffered saline (TBS) (for transgenic animals) containing protease inhibitors (Roche-11873580001 or 04693159001) per gram of tissue, e.g. for 0.158 g brain, add 1.58 ml of 0.4% DEA. All samples were sonicated for 30 seconds on ice at 20% power output (pulse mode). Homogenates were centrifuged at 221.300×g for 50 min. The resulting high speed supernatants were then transferred to fresh tubes and were optionally further purified before the next step. A portion of the supernatant was neutralized with 10% 0.5 M Tris-HCl and this was used to quantify Aβtotal. […]
In this model at least 20% Aβ42 lowering compared to untreated animals would be advantageous.

Aβ42 [2] = assay: Demonstration of in vivo efficacy: Aβ42 lowering in brain after single oral dose (Table 13); conditions: mouse brain soluble fraction, ELISA, mean, compared to untreated animals
Description: as §1, §2, §3
Mouse brains were resuspended in 10 volumes of 0.4% DEA (diethylamine)/50 mM NaCl pH 10 (for non-transgenic animals) or 0.1% 3-[3-cholamidopropyl)-dimethyl-ammonio]-1-propanesulfonate (CHAPS) in tris buffered saline (TBS) (for transgenic animals) containing protease inhibitors (Roche-11873580001 or 04693159001) per gram of tissue, e.g. for 0.158 g brain, add 1.58 ml of 0.4% DEA. All samples were sonicated for 30 seconds on ice at 20% power output (pulse mode). Homogenates were centrifuged at 221.300×g for 50 min. The resulting high speed supernatants were then transferred to fresh tubes and were optionally further purified before the next step. A portion of the supernatant was neutralized with 10% 0.5 M Tris-HCl and this was used to quantify Aβtotal.
The obtained supernatants were purified with Water Oasis HLB reverse phase columns (Waters Corp., Milford, Mass.) to remove non-specific immunoreactive material from the brain lysates prior subsequent Aβ detection. Using a vacuum manifold, all solutions were passed through the columns at a rate of approximately 1 ml per minute, so the vacuum pressure was adjusted accordingly throughout the procedure. Columns were preconditioned with 1 ml of 100% MeOH, before equilibration with 1 ml of H2O. Non-neutralized brain lysates were loaded onto the columns. The loaded samples were then washed twice with the first wash performed with 1 ml of 5% MeOH, and the second wash with 1 ml of 30% MeOH. Finally, the Aβ was eluted from the columns and into 100×30 mm glass tubes, with a solution of 90% MeOH with 2% NH4OH. […]

Aβtotal [3] = assay: Screening for γ-secretase-modulating activity, Method 1: Aβtotal sandwich ELISA in supernatant of SKNBE2 cells carrying APP 695 wild type (Tables 12a, 12b); assay type: cell-based
Procedure, shortened: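 SKNBE2 cells expressing wild-type APP 695 were plated a day ahead, then exposed to compound in Ultraculture with 1% glutamine for 18 hours. Supernatant Aβtotal captured on 6E10 overnight at 4° C, detected with biotinylated 4G8 and streptavidin-peroxidase with a fluorogenic substrate. IC50 from 4-parameter dose-response fits.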

Aβ42 [4] = assay: Screening for γ-secretase-modulating activity, Method 1: Aβ42 sandwich ELISA in supernatant of SKNBE2 cells carrying APP 695 wild type (Tables 12a, 12b); assay type: cell-based
Procedure, shortened: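 SKNBE2 cells expressing wild-type APP695 were treated with compound for 18 h, and secreted Aβ42 in the medium was quantified by sandwich ELISA (C-terminal-selective capture, biotinylated 3D6 detection, TMB read at 450 nm). IC50 came from 4-parameter fits of % inhibition or % of untreated control; toxicity was checked by WST-1.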

Aβ42 [5] = assay: Screening for γ-secretase-modulating activity, Method 2: Aβ42 Alphalisa in supernatant of SKNBE2 cells carrying APP 695 wild type (Table 12c); assay type: cell-based; conditions: Method 2, Table 12c, incubated overnight
Method: (§4) Screening was carried out using SKNBE2 cells carrying the APP 695—wild type, grown in Dulbecco's Modified Eagle's Medium/Nutrient mixture F-12 (DMEM/NUT-mix F-12) (HAM) provided by Invitrogen (cat no. 10371-029) containing 5% Serum/Fe supplemented with 1% non-essential amino acids, 1-glutamine 2 mM, Hepes 15 mM, penicillin 50 U/ml (units/ml) en streptomycin 50 μg/ml. Cells were grown to near confluency.
(§5) The screening was performed using a modification of the assay as described in Citron et al (1997) Nature Medicine 3: 67. Briefly, cells were plated in a 384-well plate at 10^4 cells/well in Ultraculture (Lonza, BE12-725F) supplemented with 1% glutamine (Invitrogen, 25030-024), 1% non-essential amino acid (NEAA), penicillin 50 U/ml en streptomycin 50 μg/ml in the presence of test compound at different test concentrations. The cell/compound mixture was incubated overnight at 37° C., 5% CO2, The next day the media were assayed by two sandwich immuno-assays, for Aβ42 and Aβtotal.
(§6) Aβtotal and Aβ42 concentrations were quantified in the cell supernatant using the Aphalisa technology (Perkin Elmer). Alphalisa is a sandwich assay using biotinylated antibody attached to streptavidin coated donorbeads and antibody conjugated to acceptor beads. In the presence of antigen, the beads come into close proximity. The excitation of the donor beads provokes the release of singlet oxygen molecules that trigger a cascade of energy transfer in the acceptor beads, resulting in light emission. To quantify the amount of Aβ42 in the cell supernatant, monoclonal antibody specific to the C-terminus of Aβ42 (JRF/cAβ42/26) was coupled to the receptor beads and biotinylated antibody specific to the N-terminus of Aβ (JRF/AβN/25) was used to react with the donor beads. To quantify the amount of Aβtotal in the cell supernatant, monoclonal antibody specific to the N-terminus of Aβ (JRF/AβN/25) was coupled to the receptor beads and biotinylated antibody specific to the mid region of Aβ (biotinylated 4G8) was used to react with the donor beads.
(§7) To obtain the values reported in Table 12c, the data are calculated as percentage of the maximum amount of amyloid Beta 42 measured in the absence of the test compound. The sigmoidal dose response curves were analyzed using non-linear regression analysis with percentage of the control plotted against the log concentration of the compound. A 4-parameter equation was used to determine the IC50.

Aβtotal [6] = assay: Screening for γ-secretase-modulating activity, Method 2: Aβtotal Alphalisa in supernatant of SKNBE2 cells carrying APP 695 wild type (Table 12c); assay type: cell-based; conditions: Method 2, Table 12c, incubated overnight
Method: as §4, §5, §6, §7

[7] = Homo sapiens, Method 1, Table 12a, SKNBE2 cells carrying APP 695 wild type, compounds 18 hours, ELISA, curve top and bottom fixed to 100 and 0, hill slope 1
[8] = Homo sapiens, Table 12b, Method 1, SKNBE2 cells carrying APP 695 wild type, cell supernatant ELISA, averaged IC50 values
[9] = Homo sapiens, Table 12b, Method 1, SKNBE2 cells carrying APP 695 wild type, cell supernatant ELISA, averaged IC50 values, percentage of control vs log concentration
[10] = Table 12b, Method 1, SKNBE2 cells carrying APP 695 wild type, cell supernatant ELISA, averaged IC50 values
[11] = Table 12b, Method 1, SKNBE2 cells carrying APP 695 wild type, cell supernatant ELISA, averaged IC50 values, percentage of control vs log concentration
[12] = Method 1, Table 12a, SKNBE2 cells carrying APP 695 wild type, compounds 18 hours, ELISA, curve top and bottom fixed to 100 and 0, hill slope 1

Row | Structure (SMILES) | IC50 (Aβtotal [3]; [8]) | IC50 (Aβ42 [4]; [9]) | IC50 (Aβtotal [3]; [10]) | IC50 (Aβ42 [4]; [11]) | IC50 (Aβ42 [5]; Homo sapiens) | IC50 (Aβtotal [6]; Homo sapiens) | Aβtotal (% Ctrl)_Mean (Aβtotal [1]) | Aβ42 (% Ctrl)_Mean (Aβ42 [2]) | other results
1 | COc1cc(Nc2cccn3c(-c4ccc(F)cc4)cnc23)ccc1-n1cnc(C)c1 [Compound 8] | > 20000 nM | 562 nM | – | – | – | – | 96 % Ctrl | 88 % Ctrl | IC50 (Aβtotal [3]; [7]): > 20000 nM; IC50 (Aβ42 [4]; [7]): 541 nM
2 | Cc1ncn(-c2ccc(Nc3cccn4c(C)c(-c5ccccc5Cl)nc34)nc2)n1 [Compound 83] | – | – | > 10000 nM | 355 nM | – | – | 104 % Ctrl | 89 % Ctrl | –
3 | COc1cc(Nc2cccn3c(C)c(-c4ccccc4F)nc23)ccc1-n1cnc(C)c1 [Compound 18] | > 10000 nM | 25 nM | – | – | – | – | 101 % Ctrl | 73 % Ctrl | IC50 (Aβtotal [3]; [7]): > 10000 nM; IC50 (Aβ42 [4]; [7]): 25 nM
4 | CCCc1nc2c(Nc3ccc(-n4cnc(C)c4)c(OC)c3)cccn2c1CC [Compound 10] | – | – | > 3020 nM | 51 nM | – | – | 104 % Ctrl | 67 % Ctrl | IC50 (Aβtotal [3]; [12]): > 3000 nM; IC50 (Aβ42 [4]; [12]): 54 nM
5 | COc1cccc(-c2nc3c(Nc4ccc(-n5cnc(C)c5)c(OC)c4)cccn3c2C)c1 [Compound 34] | > 3020 nM | 9 nM | – | – | – | – | 100 % Ctrl | 63 % Ctrl | IC50 (Aβtotal [3]; [7]): > 3000 nM; IC50 (Aβ42 [4]; [7]): 9 nM
6 | CC(=O)N(C)Cc1c(-c2ccccc2Cl)nc2c(Nc3ccc(-n4cnc(C)c4)c(F)c3)cccn12 [Compound 102] | > 3020 nM | 10 nM | – | – | 14 nM | > 10000 nM | – | – | –

Second part, led by results:

Row | IC50 (Aβtotal [3]; [8]) | IC50 (Aβ42 [4]; [9]) | IC50 (Aβtotal [3]; [10]) | IC50 (Aβ42 [4]; [11]) | IC50 (Aβ42 [5]; Homo sapiens) | IC50 (Aβtotal [6]; Homo sapiens) | Structure (SMILES) | Aβtotal (% Ctrl)_Mean (Aβtotal [1]) | Aβ42 (% Ctrl)_Mean (Aβ42 [2]) | other results
7 | > 3020 nM | 1380 nM | – | – | 871 nM | > 10000 nM | COc1cc(Nc2cccn3cc(CC4CCOCC4)nc23)ccc1-n1cnc(C)n1 [Compound 137] | – | – | –
8 | – | – | > 3020 nM | 38 nM | – | – | CCOC(=O)c1cn2cccc(Nc3ccc(-n4cnc(C)c4)c(OC)c3)c2n1 [Compound 113] | – | – | IC50 (Aβ42 [5]): 145 nM; IC50 (Aβtotal [6]): > 10000 nM
9 | > 3020 nM | 331 nM | – | – | 372 nM | > 10000 nM | Cc1cn(-c2ccc(Nc3cccn4cc(C5CCOCC5)nc34)cc2F)cn1 [Compound 118] | – | – | –
10 | > 30200 nM | 589 nM | – | – | 363 nM | > 10000 nM | Cc1cn(-c2ccc(Nc3cccn4cc(C5CC5)nc34)cc2F)cn1 [Compound 120] | – | – | –
11 | – | – | > 3020 nM | 30 nM | – | – | COCc1c(-c2ccc(F)cc2)nc2c(Nc3ccc(-n4cnc(C)n4)c(OC)c3)cccn12 [Compound 125] | – | – | IC50 (Aβ42 [5]): 51 nM; IC50 (Aβtotal [6]): 7940 nM
12 | > 10000 nM | 324 nM | – | – | 107 nM | 8320 nM | COc1cc(Nc2nccn3cc(-c4ccc(F)cc4C)nc23)ccc1-n1cnc(C)n1 [Compound 176] | – | – | –
13 | > 3020 nM | 1660 nM | – | – | 603 nM | 6170 nM | Cc1cn(-c2ccc(Nc3cccn4cc(C)nc34)cc2F)cn1 [Compound 119] | – | – | –
14 | – | – | > 3020 nM | 102 nM | – | – | COc1cc(Nc2cc(Cl)nn3cc(-c4cc(F)ccc4C)nc23)ccc1-n1cnc(C)c1 [Compound 157] | – | – | IC50 (Aβ42 [5]): 50 nM; IC50 (Aβtotal [6]): 7410 nM
15 | – | – | > 3020 nM | 3020 nM | – | – | Cc1cn(-c2ccc(Nc3cc(C(F)(F)F)nn4cc(C5CCOCC5)nc34)cc2F)cn1 [Compound 168] | – | – | IC50 (Aβ42 [5]): 380 nM; IC50 (Aβtotal [6]): 10000 nM

From US8546440B2, “Substituted bicyclic imidazole derivatives as gamma secretase modulators” (Janssen Pharmaceuticals, Inc., priority 2008, dated 2013)
